These are literature values, as cited in US20100166698A1, “NEW COMPOSITIONS AND METHODS FOR THE TREATMENT OF INFLAMMATION” (University of Virginia Patent Foundation, priority 2005, published 2010).

One data set deals with TNF-a-stimulated PMN. The following applies: adenosine 10 μM.
Data set [1] deals with TNF-α-stimulated PMN adhering to matrix proteins. The following applies: DeLa Harpe, J. Immunol. 143, 596 (1989).

With `Nc1ncnc2c1ncn2[C@@H]1O[C@H](CO)[C@@H](O)[C@H]1O` [adenosine], the “effect on TNF-a-stimulated PMN adherence to matrix proteins” value in the data set on TNF-a-stimulated PMN is given as “failed to see much of an effect”. Also, the “oxidative burst of TNF-α-stimulated PMN adhering to matrix proteins” value in data set [1] was “dramatically decreases”.
